One experiment deals with IPF patients. The note with it: 26-week clinical trial; cited from earlier work.
The target in another experiment is T1, human LPA1 (Homo sapiens, UniProt Q92633).
T1 construct: expressed in transfected cells; host or cells: Chinese hamster ovary (CHO) cells
Description: LPA1 functional antagonist assay (LPA-induced calcium flux). Format: cell-based. The following applies: CHO cells overexpressing human LPA1, calcium flux induced by 10 nM LPA. How it is done: The effectiveness of compounds of the present invention as LPA1 inhibitors can be determined in an LPA1 functional antagonist assay as follows:
Chinese hamster ovary cells overexpressing human LPA1 were plated overnight (15,000 cells/well) in poly-D-lysine coated 384-well microplates (Greiner bio-one, Cat #781946) in DMEM/F12 medium (Gibco, Cat #11039). Following overnight culture, cells were loaded with calcium indicator dye (AAT Bioquest Inc, Cat #34601) for 30 minutes at 37° C. The cells were then equilibrated to room temperature for 30 minutes before the assay. Test compounds solubilized in DMSO were transferred to 384 well non-binding surface plates (Corning, Cat #3575) using the Labcyte Echo acoustic dispense and diluted with assay buffer [1×HBSS with calcium/magnesium (Gibco Cat #14025-092), 20 mM HEPES (Gibco Cat #15630-080) and 0.1% fatty acid free BSA (Sigma Cat #A9205)] to a final concentration of 0.5% DMSO. Diluted compounds were added to the cells by FDSS6000 (Hamamatsu) at final concentrations ranging from 0.08 nM to 5 μM. and were then incubated for 20 min at room temperature at which time LPA (Avanti Polar Lipids Cat #857130C) was added at final concentrations of 10 nM to stimulate the cells. […] IC50 values were determined by fitting data to a 4-parameter logistic equation (GraphPad Prism, San Diego Calif.).
(In general: Calcium assays in cells follow changes in intracellular calcium, usually with a dye or a luminescent sensor.)

Another experiment relates to nerve-injured mice. The note with it: pretreatment; cited from earlier work.
Experiment [1] relates to highly peritoneal metastatic pancreatic cancer cell line. The note with it: cited from earlier work.
The test system of another experiment is CTGF. The note with it: co-treatment, MCT cells; cited from earlier work.
In a further experiment the test system is UUO mice. The note with it: mouse, in vivo; cited from earlier work.
The subject of experiment [2] is pancreatic cancer cell lines. The following applies: cited from earlier work.
For experiment [3], the system named is human foetal lung fibroblasts. The following applies: cited from earlier work.

Where two headings read alike, the source gives them in different places.

T1 sequence (Q92633 whole entry): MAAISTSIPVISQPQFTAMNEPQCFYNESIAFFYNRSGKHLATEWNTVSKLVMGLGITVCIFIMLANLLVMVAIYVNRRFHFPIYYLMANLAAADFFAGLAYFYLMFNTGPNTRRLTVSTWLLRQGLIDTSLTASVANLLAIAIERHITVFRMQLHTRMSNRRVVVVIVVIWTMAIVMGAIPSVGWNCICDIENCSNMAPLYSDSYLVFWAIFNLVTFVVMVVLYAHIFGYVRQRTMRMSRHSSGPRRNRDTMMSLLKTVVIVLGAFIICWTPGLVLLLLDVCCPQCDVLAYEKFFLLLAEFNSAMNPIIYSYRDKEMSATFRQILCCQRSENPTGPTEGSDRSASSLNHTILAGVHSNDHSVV

On to `Cc1noc(-c2ccc(-c3ccc(C4(C(=O)O)CC4)cc3)cc2)c1NC(=O)O[C@H](C)c1ccccc1` [BMS-986020], for which the “rate of FVC (forced vital capacity) decline” value with IPF patients is listed as “significantly reduce”. For orientation: IC50 means the midpoint of a concentration-inhibition curve. Regarding `Cc1noc(-c2ccc(O[C@H]3CCC[C@H](C(=O)O)C3)cc2)c1COC(=O)N(C)C1CCOC1` (some centres unmarked) [Example 31], the IC50 on human LPA1 (read-out: hLPA1 IC50) is 370 nM.

As to `Cc1noc(-c2ccc(O[C@H]3CCC[C@H](C(=O)O)C3)cc2)c1COC(=O)N(C)CC1CCC1` [Example 34], the IC50 at human LPA1 (read-out: hLPA1 IC50) worked out at 82 nM. Regarding `Cc1noc(-c2ccc(O[C@H]3CCC[C@H](C(=O)O)C3)cc2)c1COC(=O)N1C[C@H]2C[C@H]2C1` [Example 35], at human LPA1 (read-out: hLPA1 IC50), the IC50 stood at 1230 nM.

Regarding `Cc1noc(-c2ccc(O[C@H]3CCC[C@H](C(=O)O)C3)cc2)c1COC(=O)N(C)C1CCC1` [Example 36], the half-maximal inhibitory concentration (IC50) on human LPA1 (read-out: hLPA1 IC50) worked out at 102 nM. In the case of `Cc1noc(-c2ccc(O[C@H]3CCC[C@H](C(=O)O)C3)cc2)c1COC(=O)N(C)CC1CC1` [Example 37], at human LPA1 (read-out: hLPA1 IC50), the IC50 is 206 nM. As to `Cc1noc(-c2ccc(O[C@@H]3CCC[C@@H](C(=O)O)C3)c(F)c2)c1COC(=O)N(C)C1CCCC1` [Example 38], at human LPA1 (read-out: hLPA1 IC50), the IC50 was found to be 26 nM.

With `Cc1nc(-c2onc(C)c2COC(=O)N(C)C2CCCC2)ccc1O[C@H]1CCC[C@@H](C(=O)O)C1` [Example 39], the IC50 on human LPA1 (read-out: hLPA1 IC50) was 27 nM. The same measure, in the same setting: the figure for `Cc1noc(-c2ccc(O[C@H]3CCC[C@H](C(=O)O)C3)cn2)c1COC(=O)N[C@H](C)C1CC1` [Example 40] is 1650 nM; for `Cc1noc(-c2ccc(O[C@H]3CCC[C@H](C(=O)O)C3)cn2)c1COC(=O)N(C)[C@@H](C)C1CC1` [Example 41] it is 46 nM; for `Cc1noc(-c2ccc(O[C@H]3CCC[C@H](C(=O)O)C3)cn2)c1COC(=O)N(C)[C@H](C)C1CC1` [Example 42] it is 20 nM. For the compound `Cc1noc(-c2ccc(O[C@H]3CCC[C@H](C(=O)O)C3)cn2)c1COC(=O)N(C)CCC1CC1` [Example 43], the IC50 on human LPA1 (read-out: hLPA1 IC50) is 15 nM. Still for that read-out and setting: in the case of `Cc1noc(-c2ccc(O[C@H]3CCC[C@H](C(=O)O)C3)cn2)c1COC(=O)N(C)CCC(C)C` [Example 45] it was 5.2 nM.

Turning to `Cc1noc(-c2ccc(O[C@H]3CCC[C@@H](CC(=O)O)C3)cc2)c1COC(=O)N(C)C1CCCC1` [Example 48], the IC50 on human LPA1 (read-out: hLPA1 IC50) was 1490 nM.

As to `Cc1noc(-c2ccc(O[C@@H]3CCC[C@@H](CC(=O)O)C3)cc2)c1COC(=O)N(C)CCC(C)C` [Example 49], on human LPA1 (read-out: hLPA1 IC50), the IC50 amounted to 1210 nM.

On to `Cc1noc(-c2ccc(O[C@H]3CCC[C@H](C(=O)O)C3)cc2)c1C(C)OC(=O)N(C)CCC(C)C` (stereo partly drawn) [Example 50, (1S,3S)-3-(4-(4-(1-((isopentyl(methyl)carbamoyl)oxy)ethyl)-3-methyl-isoxazol-5-yl)phenoxy)cyclohexane-1-carboxylic Acid], for which the IC50 at human LPA1 (read-out: hLPA1 IC50) turned out to be 175 nM.

On to `Cc1noc(-c2ccc(O[C@H]3CCC[C@H](C(=O)O)C3)cc2)c1C(C)OC(=O)N(C)[C@H](C)C1CC1` (some centres unmarked) [Example 51], for which the half-maximal inhibitory concentration (IC50) on human LPA1 (read-out: hLPA1 IC50) was found to be 32 nM. The same measure, in the same setting: the figure for `CCCCN(C)C(=O)OC(C)c1c(C)noc1-c1ccc(O[C@H]2CCC[C@H](C(=O)O)C2)cc1` (some centres unmarked) [Example 52] is 60 nM; for `Cc1onc(-c2ccc(O[C@H]3CCC[C@H](C(=O)O)C3)cc2)c1COC(=O)N(C)C1CCCC1` [Example 53, (1S,3S)-3-(4-(4-(((cyclopentyl(methyl)carbamoyl)oxy)methyl)-5-methylisoxazol-3-yl)phenoxy)cyclohexane-1-carboxylic Acid] it is 6 nM. As to `Cc1onc(-c2ccc(O[C@H]3CCC[C@H](C(=O)O)C3)nc2)c1COC(=O)N(C)C1CCCC1` [Example 54, (1S,3S)-3-((5-(4-(((cyclopentyl(methyl)carbamoyl)oxy)methyl)-5-methylisoxazol-3-yl)pyridin-2-yl)oxy)cyclohexane-1-carboxylic Acid], the IC50 at human LPA1 (read-out: hLPA1 IC50) is 197 nM. Turning to `Cc1noc(-c2cnc(O[C@H]3CCC[C@H](C(=O)O)C3)cn2)c1COC(=O)N(C)C1CCCC1` [Example 55], the IC50 on human LPA1 (read-out: LPA1 IC50) worked out at 88 nM.

In the case of `Cc1noc(-c2cnc(O[C@H]3CCC[C@H](C(=O)O)C3)cn2)c1COC(=O)N(C)CCC(C)C` [Example 56], the IC50 at human LPA1 (read-out: LPA1 IC50) was 150 nM. Same read-out and setting: in the case of `Cc1noc(-c2ccc(O[C@H]3CCC[C@H](C(=O)O)C3)cn2)c1COC(=O)N(C)C(C1CC1)C1CC1` [Example 57] it was 26 nM; in that of `Cc1noc(-c2ccc(O[C@H]3CCC[C@H](C(=O)O)C3)cn2)c1COC(=O)N(C)CC1CCC1` [Example 58], 8 nM. Still for that read-out and setting: in the case of `Cc1nc(-c2onc(C)c2COC(=O)N[C@H](C)c2ccccc2)ccc1O[C@H]1CCC[C@H](C(=O)O)C1` [Example 59] it was 45 nM; in that of `Cc1nc(-c2onc(C)c2COC(=O)NC(C)(C)C)ccc1O[C@H]1CCC[C@H](C(=O)O)C1` [Example 60], 166 nM. The same measure, in the same setting: the figure for `Cc1nc(-c2onc(C)c2COC(=O)N(C)Cc2cccc(F)c2)ccc1O[C@H]1CCC[C@H](C(=O)O)C1` [Example 61] is 19 nM; for `Cc1nc(-c2onc(C)c2COC(=O)N(C)[C@H](C)c2ccccc2)ccc1O[C@H]1CCC[C@H](C(=O)O)C1` [Example 62] it is 17 nM; for `Cc1nc(-c2onc(C)c2COC(=O)N(C)C(C)(C)C)ccc1O[C@H]1CCC[C@H](C(=O)O)C1` [Example 63] it is 50 nM. `Cc1cc(-c2onc(C)c2COC(=O)N(C)C2CCCC2)ccc1O[C@H]1CCC[C@H](C(=O)O)C1` [Example 64]: the IC50 on human LPA1 (read-out: LPA1 IC50) is 52 nM. In the case of `[2H]C([2H])([2H])N(C(=O)OCc1c(C)noc1-c1ccc(O[C@H]2CCC[C@H](C(=O)O)C2)cn1)[C@H](C)C1CC1` [Example 66], the IC50 on human LPA1 (read-out: hLPA1 IC50) was 25 nM. `COCC(C)N(C)C(=O)OCc1c(C)noc1-c1ccc(O[C@@H]2CCC[C@@H](C(=O)O)C2)cc1` (some centres unmarked) [Example 67]: the IC50 on human LPA1 (read-out: hLPA1 IC50) was 675 nM.

With `Cc1noc(-c2ccc(O[C@@H]3CCC[C@@H](C(=O)O)C3)cc2)c1COC(=O)N(C)C(C)C1CC1` (some centres unmarked) [Example 68], at human LPA1 (read-out: hLPA1 IC50), the IC50 came out at 48 nM. Same read-out and setting: the figure for `Cc1noc(-c2ccc(O[C@@H]3CCC[C@@H](C(=O)O)C3)cc2)c1COC(=O)N(C)C(C)C1CCC1` (some centres unmarked) [Example 69] is 214 nM. The same measure, in the same setting: in the case of `Cc1noc(-c2ccc(O[C@H]3CCC[C@H](C(=O)O)C3)cn2)c1COC(=O)N(C)C1CC(C)(C)C1` [Example 70] it was 23 nM; in that of `COC(C)CN(C)C(=O)OCc1c(C)noc1-c1ccc(O[C@@H]2CCC[C@@H](C(=O)O)C2)cc1` (some centres unmarked) [Example 71], 1630 nM. For `COCCN(C)C(=O)OCc1c(C)noc1-c1ccc(O[C@@H]2CCC[C@@H](C(=O)O)C2)cc1` [Example 72], the IC50 at human LPA1 (read-out: hLPA1 IC50) was determined as 472 nM. Regarding `C[C@@H](N)[C@H]1CC[C@H](C(=O)Nc2ccncc2)CC1` [Example Y-27632], the allodynia and hyperalgesia entry in the experiment with nerve-injured mice was “completely abolished”. For the compound `Cc1noc(-c2ccc(CSCCC(=O)O)cc2)c1NC(=O)OC(C)c1ccccc1Cl` (centres unmarked) [Ki16425], the “LPA-induced and ascites-induced invasion activity” value in experiment [1] is “blocked”. Besides, in the experiment with CTGF, the “induction of CTGF expression by LPA” value is “almost completely suppressed”. Besides, the “renal fibrosis profile of treated UUO mice” value in the experiment on UUO mice is on record as “closely resembled the profile of LPA1 (−/−) mice”. In addition, in experiment [2], the “in vitro migration in response to LPA and peritoneal fluid (ascites)” value was “effectively blocked”. Also, in experiment [3], the “chemotaxis of human foetal lung fibroblasts induced by BAL from IPF patients” value is on record as “blocked” and the “fibroblast chemotactic activity in bronchoalveolar lavage samples of IPF subjects” value is given as “inhibited”.

These data come from patent publication US11180488B2, “Isoxazole o-linked carbamoyl cyclohexyl acids as LPA antagonists” (BRISTOL-MYERS SQUIBB COMPANY, priority 2017, dated 2021).
